Assays:
[1] = Gold-binding assay (LC-MS); settings: 1 mM Au(III), crude extract 2-5 μM, 2 hours at 22° C.
Experimental: Gold-binding Assay To test Ybt or analog gold binding capability, HAuCl4 was used to generate a solution of 1 mM Au(III) in de-ionized water. To this solution, crude extract of Ybt or analog (from samples prepared without FeCl3 addition) was added at a final concentration of 2-5 μM. After incubation for 2 hours at 22° C., the solution was analyzed by LC-MS.

[2] = Rust removal experiments (1,10-phenanthroline assay)
Experimental: Rust Removal Experiments. A rusted carbon steel tube was machine cut into U-shaped pieces (through the University at Buffalo School of Engineering and Applied Sciences Engineering Machine Shop) and each piece, after cleaning with acetone and rinsing with DI water, immersed in 10 mL Millipore water. Samples were then mixed with 250 μL of methanol or final extracts (about 0.2 mg of Ybt) derived from the larger-scale negative control or Ybt production cultures. Samples were then allowed to incubate at 30° C. with shaking for 2 hours.
Rust removal was quantified through a modification of the 1,10-phenanthroline assay to enable detection using a 96-well plate format. To each well, 40 μL of 0.3% (wt/vol) 1,10-phenanthroline, 40 μL of 1% (wt/vol) hydroxylamine hydrochloride, and 40 μL of 0.1 M ammonium acetate were mixed. […] Absorbance was measured using a microplate reader at a wavelength of 510 nm with concentration measurements determined from a calibration curve of Fe^3+ (Sigma-Aldrich).
To assess total rust removal, metal samples recovered after incubation were washed with water and immersed in a solution of 1% (wt/vol) oxalic acid for 30 minute to remove the remaining rust on the metal surface. Upon quantifying the amount of Fe^3+ removed using the 96-well plate method introduced above, percent rust removal was calculated using the following equation: […]

[3] = Copper removal experiments with Ybt-modified XAD beads (Zincon assay); settings: fresh beads in three successive applications
Experimental: (§1) Copper Removal Experiments. Copper and zinc removal assessment was completed using the Zincon assay (Sabel et al. 2010. Anal Biochem 397:218-226). Briefly, 40 μL samples (diluted if necessary to keep concentrations less than 4 ppm) were added to 200 μL of borate buffer (65.8 mM; pH=9), and the assay was initiated by adding 10 μL of Zincon solution (1.6 mM). After a five-minute incubation at 20° C., absorbance at 610 nm was measured. Standard curves for Zn and Cu were made using pure salts (Sigma-Aldrich) to allow quantification. The initial measurement provides total metal concentration (zinc and copper together) while the second measurement allows determination of the copper concentration. By subtracting the second reading from the first, zinc concentration is determined. […]
(§2) To test copper removal, 800 μL of copper solution was added to 40 mg of Ybt-modified XAD beads (or controls) and incubated at 30° C. with shaking (for sheep blood and 50% FBS RPMI samples, this temperature was 22° C.). […] The copper content of the original mixture solution and the liquid resulting from the bead washing steps was measured using the Zincon assay described above. […] The removal ability was calculated using the following equation: […]

[4] = Zinc removal with Ybt-modified XAD beads (Zincon assay); settings: FIG. 14D
Experimental: as §1, §2

[5] = Packed-bed removal from zinc and copper solutions; settings: pH 6.5
Experimental: Copper removal experiments: To test copper removal, 10 grams of each resin (XAD, Chelex 100, and Ybt-XAD) were packed into a 2.5×10 cm glass chromatography column (Bio-Rad). The column was equilibrated with 10 bed volumes of Millipore water before loading the metal solution. The metal solution (˜5 ppm zinc and ˜1 ppm copper; pH adjusted with dilute HCl or NaOH) was pumped (LMI Milton Roy dosing pump) into the column with a continuous flow rate of 1 L/hr. Samples were collected every 30 min. The percent copper or zinc removal was calculated using the following formula: [(Ci−Cf)/Ci]×100, where Ci is the initial copper (or zinc) concentration and Cf is the final concentration. Average selectivity was defined as the ratio of average copper removal (%) to the average zinc removal (%) over the course of the experiment.

[6] = pH 2 (10 mM HCl)
Experimental: Based upon the pH removal profiles for Ybt-XAD, the column was tested for regeneration (FIG. 27). […] To select the degree of pH reduction, the Ybt compound was tested for degradation over log-fold differences in HCl concentrations (FIG. 31).

RAW264.7 cells = tested on: RAW264.7 cells
Experimental: Biological Interaction Assays. Cytotoxicity resulting from Ybt samples was determined by the 3-(4, 5-dimethylthiazol-2-yl)-diphenyltetrazolium bromide (MTT) colorimetric assay. Three distinct cell lines (RAW264.7 [macrophage; provided by Dr. Terry Connell, Department of Microbiology and Immunology, University at Buffalo], HeLa [epithelial; provided by Dr. Stelios Andreadis, Department of Chemical and Biological Engineering, University of Buffalo], and NIH3T3 [fibroblast; ATCC]) were cultured in T75 flasks at 37° C./5% CO2. RAW264.7 cells were maintained in medium prepared as follows: 50 mL of FBS (heat inactivated), 5 mL of 100 mM MEM sodium pyruvate, 5 mL of 1 M HEPES buffer, 5 mL of penicillin/streptomycin solution, and 1.25 g of D-(+)-glucose added to 500 mL RPMI-1640 and filter sterilized. HeLa and NIH3T3 cells were maintained in Dulbecco's Modified Eagle Medium (DMEM; Gibco BRL, Grand Island, N.Y.) supplemented with 10% (v/v) FBS (GIBCO) and 1% (v/v) Antibiotic-Antimycotic (A/A; Gibco). […]

[7] = tested on: red blood cell (RBC) membranes; settings: 0.03 mg/mL Ybt or 50 mg/mL Ybt-XAD beads in PBS, 37° C.
Experimental: To assess potential disruption of red blood cell (RBC) membranes by Ybt samples, a hemolysis assay was modified from a protocol previously described (Jones et al. 2014. Proc Natl Acad Sci USA 111:12360-12365). Briefly, a 5% RBC solution was prepared by washing sheep blood (HemoStat Laboratories) with PBS until the supernatant became clear. Next, 100 μL of purified 5% RBC solution was incubated with 900 μL of 0.03 mg/mL crude extract Ybt samples (or controls) or 50 mg/mL Ybt-complexed XAD beads (or controls) in PBS over time at 37° C. Triton-X 100 (1% solution) was used to construct a blood lysis standard curve by altering the amount of blood added to each respective sample. For example, for 50 and 100% lysis, 50 and 100 μL of purified 5% RBC solution was mixed with 1% Triton-X (to 1 mL). PBS was used to generate negative controls. Samples were centrifuged and hemolysis quantified by measuring supernatant at 541 nm and comparing to the % blood lysis standard curve.

## CC(C)(C1=N[C@@](C)(C(=O)O)CS1)[C@H](O)[C@@H]1CSC([C@H]2CSC(c3ccccc3O)=N2)N1 (stereo partly drawn) [Ybt, yersiniabactin]
[1]
  gold binding / complex formation: lack of complexation
[2]; about 0.2 mg of Ybt, 30° C., 2 hours
  rust removed, of total rust: about 20%
[2]; relative to commercial product Rust-Oleum
  rust removed relative to the commercial control: about 40%
[3]
  copper removal after repeated extractions: ~100%
[4]
  zinc removal capability: no discernible capability to remove zinc
[5]
  zinc binding in fixed bed: not observed
[6]
  stability (degradation over time): stability
RAW264.7 cells
  immunogenicity via NO production from macrophage cells: minimal concerns
[7]
  RBC hemolysis: minimal concerns

— US20180065940A1, “METAL-BINDING COMPOUNDS, HETEROLOGOUS PRODUCTION AND USES THEREOF” (The Research Foundation for The State University of New York, priority 2015, published 2018)
